Test results: patent publication US20140018303A1
Read-outs that look alike come from different tables or passages of the source.

What was measured:
[1] = biological target: T1, aminopeptidase N (L5006-25UN, Sigma) (Sus scrofa, UniProt P15145)
T1 sequence (P15145 1-963): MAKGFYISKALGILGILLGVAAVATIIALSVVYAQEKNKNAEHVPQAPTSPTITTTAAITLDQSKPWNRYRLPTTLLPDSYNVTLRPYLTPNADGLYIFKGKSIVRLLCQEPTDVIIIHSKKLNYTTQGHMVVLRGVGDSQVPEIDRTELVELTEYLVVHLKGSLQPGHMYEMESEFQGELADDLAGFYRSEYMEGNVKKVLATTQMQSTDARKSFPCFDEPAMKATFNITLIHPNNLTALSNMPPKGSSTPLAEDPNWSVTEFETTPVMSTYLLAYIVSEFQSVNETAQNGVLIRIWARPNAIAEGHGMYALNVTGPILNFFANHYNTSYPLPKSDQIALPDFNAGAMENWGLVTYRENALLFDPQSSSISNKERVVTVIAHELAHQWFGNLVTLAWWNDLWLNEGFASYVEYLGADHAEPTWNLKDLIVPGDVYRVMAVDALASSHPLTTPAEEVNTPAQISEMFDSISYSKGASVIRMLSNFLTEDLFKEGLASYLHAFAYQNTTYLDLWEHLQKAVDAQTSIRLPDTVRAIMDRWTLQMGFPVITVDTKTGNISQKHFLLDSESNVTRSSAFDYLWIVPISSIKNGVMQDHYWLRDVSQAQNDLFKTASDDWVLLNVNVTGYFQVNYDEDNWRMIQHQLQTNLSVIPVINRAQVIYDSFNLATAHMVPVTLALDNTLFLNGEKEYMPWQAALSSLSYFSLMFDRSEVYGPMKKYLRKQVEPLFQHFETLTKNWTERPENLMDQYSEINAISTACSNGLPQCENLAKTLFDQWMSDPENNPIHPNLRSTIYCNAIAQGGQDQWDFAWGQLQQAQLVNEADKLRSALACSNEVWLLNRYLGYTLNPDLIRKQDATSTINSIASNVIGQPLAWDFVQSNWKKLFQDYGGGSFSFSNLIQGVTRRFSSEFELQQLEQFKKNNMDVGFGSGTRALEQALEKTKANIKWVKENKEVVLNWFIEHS
Experimental: Biotechnol., 1995, 5(1):36-40” is followed to analyze the bioactivity of 3-amino-2-hydroxy-4-phenylbutanoyl-valyl-isoleucine, taking bestatin, a typical APN inhibitor used in leukemia treatment, as positive control.
The procedure for the assay is as follows: apply 100 μl (1 mg/ml in a 0.1M Tris-HCl, pH 7.0) of substrate (L-leucine-p-nitroanilide) to a 96-well plate, mix with 20 µl (0.1M Tris-HCl, pH 7.0) of the compound to be assayed of different concentration (0.86, 1.71, 2.57, 4.29, 8.57 μg/ml). Incubate at 37° C. for 3 min, followed by addition of 20 μl (2 mU, 0.1M Tris-HCl, pH 7.0) aminopeptidase N (L5006-25UN, Sigma), incubate at 37° C. for 30 min. Read the absorbance at 405 nm.
The inhibition rate is presented as:
Inhibition rate=(A−B)/A*100%
wherein: • A is the absorbance tested without inhibitor in the system. • B is the absorbance detected in the system containing different concentration of the compound. Use 0.1M Tris-HCl (pH 7.0) to normalize the buffer.

[2] = Solubility of the purified product in solvents; assay type: physicochemical
Experimental: The broth is harvested and placed at 4° C. overnight. Remove the precipitate by centrifugation at 4000 rpm, 4° C., for 30 min. The supernatant is subject to macroporous resin, which is selected from: XAD-1600, SP850, or JD-1, by either static or dynamic mode. The resin is then eluted with double volume of purified water, 10%, 30%, 50%, 75%, and 100% of ethanol. Collect the fraction of the 50% elute and concentrate it under reduced pressure at 40° C. Dilute the concentrate by 10 fold with 30% acetonitrile and centrifuge at 12000 rpm for 10 min. Load 15-25 ml of the supernatant to a column for preparative chromatography (Biotage Si 25+M 1603-2, USA) at room temperature. Elute the column with 30% acetonitrile at flow rate of 3-5 ml/min, and collect the fraction of 200-400 ml. The collected elute is then concentrate under reduced pressure at 40° C., and the concentrate is subject to preparative HPLC by DIONEXP680 system or Agilent 1100 DAD system. The fraction containing target compound is concentrated and dried under reduced pressure at 40° C., and a purified product is obtained. […]

[3] = read-out: Inhibition Rate against APN (IR)

SMILES | inhibition at 0.86 µg/mL [1, 3] [%] | inhibition at 1.71 µg/mL [1, 3] [%] | inhibition at 2.57 µg/mL [1, 3] [%] | inhibition at 4.29 µg/mL [1, 3] [%] | inhibition at 8.57 µg/mL [1, 3] [%] | Inhibition Rate against APN (IR) ([1]; concentration 0.86 μg/ml) [%] | Inhibition Rate against APN (IR) ([1]; concentration 1.71 μg/ml) [%] | Inhibition Rate against APN (IR) ([1]; concentration 2.57 μg/ml) [%] | Inhibition Rate against APN (IR) ([1]; concentration 4.29 μg/ml) [%] | Inhibition Rate against APN (IR) ([1]; concentration 8.57 μg/ml) [%] | solubility ([2]; in chloroform) | solubility ([2]; in methanol, ethanol, water and acetonitrile)
CC(C)C[C@H](NC(=O)[C@@H](O)[C@H](N)Cc1ccccc1)C(=O)O [positive control, bestatin, reference compound] | 41.6 | 44.4 | 47.1 | 52.6 | 66.5 | – | – | – | – | – | – | –
CC[C@H](C)[C@H](NC(=O)[C@@H](NC(=O)C(O)C(N)Cc1ccccc1)C(C)C)C(=O)O (stereo partly drawn) [the compound] | – | – | – | – | – | 42.02 | 51.40 | 65.14 | 70.79 | 77.91 | insoluble | soluble
